Paper PMC9913425, “Pentacyclic Triterpenoids-Based Ionic Compounds: Synthesis, Study of Structure–Antitumor Activity Relationship, Effects on Mitochondria and Activation of Signaling Pathways of Proliferation, Genome Reparation and Early Apoptosis” (Cancers, 2023)

How the values were obtained:
K562 = assay: In vitro cytotoxicity, IC50 by flow cytometry (Guava ViaCount); type: cell-based
Procedure: (§1) Human cancer cell line HeLa, HL60, A2780 was obtained from the HPA Culture Collections (Salisbury, UK). Cells (Jurkat, K562, U937, Hek293, Fibroblasts) were purchased from Russian Cell Culture Collection (Institute of Cytology of the Russian Academy of Sciences, […], Russia) and cultured according to standard protocols and sterile technique. […] Cells were maintained in RPMI 1640 (Jurkat, K562, U937, HL60) (Gibco, Billings, MT, USA) supplemented with […], 10% FBS (Sigma) and 100 units/mL penicillin–streptomycin (Sigma). All types of cells were grown in an atmosphere of 5% CO2 at 37 °C. The cells were subcultured at 2–3 days intervals. Cells were then seeded in 24-well plates at 5 × 10^4 cells per well and incubated overnight. Jurkat, K562, U937, HL60 cells were subcultured at 2-day intervals with a seeding density of 1 × 10^5 cells per 24-well plates in RPMI with 10% FBS.
(§2) The antitumor activity of the synthesized ionic compounds was initially assessed in vitro on Jurkat, K562, U937, HL60, HEK293, A2780 cell lines, including the determination of IC50 by flow cytometry involving Guava ViaCount (Millipore) reagent kits.

U937 = assay: as above; type: cell-based
Procedure: as §1, §2

Jurkat = assay: as above; type: cell-based; details: Jurkat cells
Procedure: as §1, §2

HEK293 = assay: as above; type: cell-based; details: conditionally normal
Procedure: as §1, §2

[1] = tested on: mitochondria of Jurkat tumor cells; assay: Mitochondrial damage (MitoSense Red staining); type: cell-based; details: compound at IC50 concentration, incubation 2 h
Jurkat cells = assay: Apoptosis/necrosis induction (Annexin V Alexa Fluor488, 7AAD staining); type: cell-based; details: compound at IC50 concentration, incubation 2 h
Description: Multiparametric evaluation of marker molecules, along with the detection of damage to the mitochondrial membrane, makes it possible to clearly determine the type of cell death. The method of cell staining with three different dyes (Annexin V Alexa Fluor488, 7AAD and MitoSense Red) provides simultaneous specification of various aspects of the state of the cell membrane, the state of DNA and the viability of mitochondria; together, it is a reliable sign of intrinsic and mitochondrial apoptosis pathway. Normal cells with intact mitochondrial membranes have high MitoSense Red fluorescence, while cells with decoupled oxidation and phosphorylation have much lower fluorescence. […]
Figure 1 The ratio of the level of mito-damage and the level of apoptosis in Jurkat cells of ionic compounds based on ursolic, oleanolic and betulinic acids.

A2780 = assay: In vitro cytotoxicity, IC50 by flow cytometry (Guava ViaCount); type: cell-based, human
Procedure: as §1, §2

HL60 = assay: as above; type: cell-based, human
Procedure: as §1, §2

[2] = Homo sapiens, U-937, U937 cells
[3] = Homo sapiens, HEK293, HEK293 cells
[4] = Homo sapiens, A2780, A2780 cells
[5] = Homo sapiens, HL-60, HL60 cells

Molecule | IC50 (K562; K562 cells) [nM] | IC50 (U937; U937 cells) [nM] | IC50 (Jurkat) [nM] | IC50 (HEK293; HEK293 cells) [nM] | Mito-Damage (%) [1] [%] | Apoptosis (%) Early (Jurkat cells) [%] | Apoptosis (%) Late (Jurkat cells) [%] | Apoptosis (%) Necrosis (Jurkat cells) [%] | IC50 (A2780; A2780 cells) [nM] | IC50 (HL60; HL60 cells) [nM] | IC50 (K562; Homo sapiens, K562, K562 cells) [nM] | IC50 (U937; [2]) [nM] | IC50 (Jurkat; Homo sapiens, Jurkat) [nM] | IC50 (HEK293; [3]) [nM] | IC50 (A2780; [4]) [nM] | IC50 (HL60; [5]) [nM] | percentage of cells in the apoptotic state (Jurkat cells) [%]
C=C(C)[C@@H]1CC[C@]2(C(=O)[O-])CC[C@]3(C)[C@H](CC[C@@H]4[C@@]5(C)CC[C@H](O)C(C)(C)[C@@H]5CC[C@]43C)[C@@H]12.CCn1cc[n+](C)c1 [17a, 1-Ethyl-3-methylimidazolium (3β)-3-hydroxyolup-20(29)-en28-oylate] | 41 ± 2 | 34 ± 2 | 18 ± 1 | 182 ± 17 | 8.84 | 2.91 | 1.38 | 3.30 | 81 ± 8 | 17 ± 2 | – | – | – | – | – | – | –
C=C(C)[C@@H]1CC[C@]2(C(=O)OCCn3cc[n+](C)c3)CC[C@]3(C)C(CCC4[C@@]5(C)CC[C@H](O)C(C)(C)C5CC[C@]43C)C12 (stereo partly drawn) [11a, 1-(2-{[(3β)-3-Hydroxylup-20(29)-en-28-oyl]oxy}ethyl)-3-methylimidazolium bromide] | – | – | – | – | 5.26 | 6.58 | 0.74 | 0.56 | – | – | 76 ± 4 | 69 ± 3 | 25 ± 1 | 237 ± 21 | 132 ± 12 | 22 ± 2 | –
1-Benzyl-3-methylimidazolium (3β)-3-hydroxyolup-20(29)-en28-oylate [17d] | 44 ± 2 | 40 ± 2 | 16 ± 1 | 189 ± 16 | 9.69 | 4.82 | 1.44 | 2.11 | 87 ± 9 | 19 ± 2 | – | – | – | – | – | – | –
C[n+]1ccn(CCOC(=O)[C@]23CCC(C)(C)CC2C2=CCC4[C@@]5(C)CC[C@H](O)C(C)(C)C5CC[C@@]4(C)[C@]2(C)CC3)c1 (stereo partly drawn) [9a, 1-(2-{[(3β)-3-Hydroxyolean-12-en-28-oyl]oxy}ethyl)-3-methylimidazolium Bromide] | – | – | – | – | 5.07 | 1.72 | 2.79 | 1.96 | – | – | 78 ± 4 | 69 ± 4 | 37 ± 2 | 259 ± 24 | 132 ± 11 | 24 ± 2 | –
CC[N+](CC)(CC)CCCCCCOC(=O)[C@]12CCC(C)(C)CC1C1=CCC3[C@@]4(C)CC[C@H](O)C(C)(C)C4CC[C@@]3(C)[C@]1(C)CC2 (stereo partly drawn) [12e, N,N,N-Triethyl-N-(6-{[(3β)-3-hydroxyolean-12-en-28-oyl]oxy}hexyl)-aminium bromide] | – | – | – | – | 97.3 | 0.76 | 76.0 | 7.19 | – | – | 13 ± 1 | 10 ± 1 | 7 ± 1 | 34 ± 3 | 16 ± 2 | 3 ± 1 | –
C[n+]1ccn(CCCCCCOC(=O)[C@]23CCC(C)(C)CC2C2=CCC4[C@@]5(C)CC[C@H](O)C(C)(C)C5CC[C@@]4(C)[C@]2(C)CC3)c1.O=S(=O)([O-])c1ccccc1 (stereo partly drawn) [13e, 1-(6-{[(3β)-3-Hydroxyolean-12-en-28-oyl]oxy}hexyl)-3-methylimidazolium Benzenesulfonate] | 17 ± 1 | 14 ± 1 | 11 ± 1 | 46 ± 4 | 7.71 | 6.26 | 3.12 | 1.52 | 24 ± 2 | 4 ± 1 | – | – | – | – | – | – | –
1-Butyl-3-methylimidazolium (3β)-3-hydroxyolup-20(29)-en28-oylate [17b] | 39 ± 3 | 32 ± 3 | 14 ± 1 | 159 ± 14 | 17.39 | 6.45 | 3.38 | 1.92 | 74 ± 6 | 15 ± 1 | – | – | – | – | – | – | –
Cn1cc[n+](CCCCCCOC(=O)C23CCC(C)(C)CC2C2=CCC4C5(C)CCC(O)C(C)(C)C5CCC4(C)C2(C)CC3)c1.[F][Sb-]([F])([F])([F])([F])[F] (stereo not drawn) [13b, 1-(6-{[(3β)-3-Hydroxyolean-12-en-28-oyl]oxy}hexyl)-3-methylimidazolium Hexafluoroantimonate] | 12 ± 1 | 10 ± 1 | 9 ± 1 | 39 ± 3 | 35.72 | 2.35 | 17.49 | 4.68 | 21 ± 2 | 3 ± 1 | – | – | – | – | – | – | –
Cn1cc[n+](CCCCCCOC(=O)[C@]23CCC(C)(C)C[C@H]2C2=CC[C@@H]4[C@@]5(C)CC[C@H](O)C(C)(C)[C@@H]5CC[C@@]4(C)[C@]2(C)CC3)c1.F[P-](F)(F)(F)(F)F [13c, 1-(6-{[(3β)-3-Hydroxyolean-12-en-28-oyl]oxy}hexyl)-3-methylimidazolium Hexafluorophosphate] | 7 ± 1 | 5 ± 1 | 8 ± 1 | 32 ± 3 | 8.32 | 3.62 | 5.20 | 1.78 | 14 ± 1 | 3 ± 1 | – | – | – | – | – | – | –
C[C@H](O)C(=O)[O-].C[n+]1ccn(CCCCCCOC(=O)[C@]23CCC(C)(C)CC2C2=CCC4[C@@]5(C)CC[C@H](O)C(C)(C)C5CC[C@@]4(C)[C@]2(C)CC3)c1 (stereo partly drawn) [13g, 1-(6-{[(3β)-3-Hydroxyolean-12-en-28-oyl]oxy}hexyl)-3-methylimidazolium L-lactate] | 14 ± 1 | 13 ± 1 | 7 ± 1 | 26 ± 2 | 97.4 | – | – | – | 13 ± 1 | 2 ± 1 | – | – | – | – | – | – | –
CC1(C)CC[C@]2(C(=O)OCCCCCC[N+]3(C)CCCC3)CC[C@]3(C)C(=CCC4[C@@]5(C)CC[C@H](O)C(C)(C)C5CC[C@]43C)C2C1 (stereo partly drawn) [12c, 1-(6-{[(3β)-3-Hydroxyolean-12-en-28-oyl]oxy}hexyl)-1-methylpyrrolidinium bromide] | – | – | – | – | 74.26 | 0.7 | 33.66 | 0.99 | – | – | 24 ± 1 | 21 ± 1 | 11 ± 1 | 81 ± 8 | 39 ± 4 | 27 ± 2 | 35
CC1(C)CC[C@]2(C(=O)OCCCCCC[N+]3(C)CCCCC3)CC[C@]3(C)C(=CCC4[C@@]5(C)CC[C@H](O)C(C)(C)C5CC[C@]43C)C2C1 (stereo partly drawn) [12b, 1-(6-{[(3β)-3-Hydroxyolean-12-en-28-oyl]oxy}hexyl)-1-methylpiperidinium bromide] | – | – | – | – | 23.49 | 3.21 | 18.13 | 1.9 | – | – | 21 ± 1 | 19 ± 1 | 9 ± 1 | 76 ± 7 | 34 ± 3 | 24 ± 2 | –
CC1(C)CC[C@]2(C(=O)OCCCCCC[N+](C)(C)CCO)CC[C@]3(C)C(=CCC4[C@@]5(C)CC[C@H](O)C(C)(C)C5CC[C@]43C)C2C1 (stereo partly drawn) [12f, N-(2-Hydroxyethyl)-N-(6-{[(3β)-3-hydroxyolean-12-en-28-oyl]oxy}hexyl)-N,N-dimethylaminium bromide] | – | – | – | – | 86.98 | 0.0 | 30.87 | 54.23 | – | – | 49 ± 2 | 42 ± 2 | 17 ± 1 | 26 ± 2 | 15 ± 1 | 11 ± 1 | 85.10
C[C@@H]1CC[C@]2(C(=O)OCCCCCCn3cc[n+](C)c3)CC[C@]3(C)C(=CCC4[C@@]5(C)CC[C@H](O)C(C)(C)C5CC[C@]43C)C2[C@H]1C (some centres unmarked) [10c] | – | – | – | – | 8.89 | 6.61 | 4.08 | 0.61 | – | – | 7 ± 1 | 6 ± 1 | 3 ± 1 | 24 ± 2 | 11 ± 1 | 2 ± 1 | –
CC1(C)CC[C@]2(C(=O)OCCCCCC[N+]3(C)CCOCC3)CC[C@]3(C)C(=CCC4[C@@]5(C)CC[C@H](O)C(C)(C)C5CC[C@]43C)C2C1 (stereo partly drawn) [12d, 4-(6-{[(3β)-3-Hydroxyolean-12-en-28-oyl]oxy}hexyl)-4-methylmorpholinium bromide] | – | – | – | – | 62.11 | 0.0 | 36.14 | 22.63 | – | – | 69 ± 3 | 59 ± 3 | 22 ± 2 | 86 ± 8 | 41 ± 4 | 17 ± 1 | –
